Measurements as given in patent US20130023573A1, “ALPHA-2 […] TREATING VISUAL DISORDERS MEDIATED BY CENTRAL VISUAL P[…] THE EYE” (priority 2011, published 2013).

Key:
rat visual cortex slices = assay: Long-term potentiation in visual cortex slice; assay type: cell-based; settings: LTP at 30 min after induction; for threshold dose for dose-dependent facilitation of LTP: rat visual cortex slices, drug infused 20 min before theta burst stimulation
Protocol: Following decapitation of the anesthetized rat, the brain was rapidly removed and immersed in ice-cold artificial cerebrospinal fluid (ACSF) containing (in mM) NaCl 124, KCl 3, KH2PO4 1.25, CaCl2 3.4, MgSO4 2.5, NaHCO3 26, and D-glucose 10. A block of visual cortex was created by removing the frontal ⅔ portion of the brain and the cerebellum. Coronal visual cortex slices of 350 μm thick were prepared from young adult (200-300 g) male Sprague-Dawley rats using a vibratome (VT 1000 S; Leica). The slices were maintained in an interface recording chamber perfused with preheated ACSF. Slices were continuously perfused with this solution at a rate of 1.00-1.50 ml/min while the surface of the slices was exposed to warm, humidified […] and maintained at 31±1° C. Visual cortex slices were allowed to recover for 1 hr before recording began. A single stimulating and recording electrode was placed in layer IV and III, respectively, to generate and record field excitatory postsynaptic potentials (fEPSPs). Pulses were administered at 0.05 Hz using a current that produced a fEPSP that is 50% of the maximum spike free response. An input-output (IO) curve was done to determine the stimulation needed to achieve a stable baseline. Following a 15 min stable baseline recording period, a train of 5 theta bursts (each burst containing four pulses at 100 Hz with an inter-burst interval of 200 ms) was delivered to the slice. This was repeated 2 additional times with a 1 minute inter-train interval, and the level of LTP was recorded for at least 30 min. Changes in amplitude of the synaptic response were used to measure the extent of LTP, since the amplitude was determined to be the more consistent parameter than the slope of the response. Control LTP values were obtained from slices not treated with drug. Different slices were used to study drug effects on LTP. Compound 4-bromo-N-(imidazolidin-2-ylidene)-1H-benzimidazol-5-amine or (S)-(3-(1-(1H-imidazol-4-yl)ethyl)-2-methylphenyl)methanol) was infused after 15 min baseline recording for a duration of 20 minutes followed by LTP induction. Drug washout began 5 minutes after tetanization. Recording of the amplitude before, during, and after drug infusion was continuously done at 0.05 Hz. Statistical comparisons were done with LTP values recorded at 30 minutes after induction for drug-treated vs control slices (non-paired t-test).
In brief, brain slices from primary visual cortex were prepared and recording of evoked field responses was done as described in the ‘general procedure’ section. A typical LTP run began with establishing a stable baseline, then treatment for 20 min with 4-bromo-N-(imidazolidin-2-ylidene)-1H-benzimidazol-5-amine followed by LTP induction via brief high-frequency theta burst stimulation (TBS) and drug washout 5 min after TBS, and ended after monitoring the amount of LTP for at least 30 min. Control LTP was measured in a group of separate slices within the same chamber infused with aCSF. The amount of LTP present at 30 min after induction was used to compare drug effects at different concentrations relative to the control group. […] The percent increase in LTP was shown relative to the pre-LTP baseline for each condition.
The percent increase in LTP was shown relative to the pre-LTP baseline for each condition.

[1] = rats, after oral dose of brimonidine tartrate (Acheampong et al., Xenobiotica 2007); cited from earlier work

Row | SMILES | LTP compared to control slices (rat visual cortex slices; 100 nM) | LTP compared to control slices (rat visual cortex slices; 300 nM) | threshold dose for dose-dependent facilitation of LTP (rat visual cortex slices) [nM] | LTP compared to control slices (rat visual cortex slices; 3 nM) | LTP compared to control slices (rat visual cortex slices; 30 nM) | amount found in urine [1]
1 | Cc1c(CO)cccc1[C@H](C)c1c[nH]cn1 [(S)-(3-(1-(1H-imidazol-4-yl)ethyl)-2-methylphenyl)methanol] | significantly facilitated | significantly facilitated | 100 | – | – | –
2 | Brc1c(N=C2NCCN2)ccc2[nH]cnc12 [4-bromo-N-(imidazolidin-2-ylidene)-1H-benzimidazol-5-amine] | – | significantly facilitated | 3 | significantly facilitated | significantly facilitated | trace amounts
